The record followed here is US20220348590A1, “CYCLOOXYGENASE-2 INHIBITORS AND USES THEREOF” (The Board Institute, Inc., priority 2019, published 2022).

pIC50: −log10 of the molar value. Read-outs that look alike come from different tables or passages of the source.

For the assay, the target named is T1, human recombinant COX2 (hCOX2) (UniProt P35354).
T1 sequence (P35354 1-604): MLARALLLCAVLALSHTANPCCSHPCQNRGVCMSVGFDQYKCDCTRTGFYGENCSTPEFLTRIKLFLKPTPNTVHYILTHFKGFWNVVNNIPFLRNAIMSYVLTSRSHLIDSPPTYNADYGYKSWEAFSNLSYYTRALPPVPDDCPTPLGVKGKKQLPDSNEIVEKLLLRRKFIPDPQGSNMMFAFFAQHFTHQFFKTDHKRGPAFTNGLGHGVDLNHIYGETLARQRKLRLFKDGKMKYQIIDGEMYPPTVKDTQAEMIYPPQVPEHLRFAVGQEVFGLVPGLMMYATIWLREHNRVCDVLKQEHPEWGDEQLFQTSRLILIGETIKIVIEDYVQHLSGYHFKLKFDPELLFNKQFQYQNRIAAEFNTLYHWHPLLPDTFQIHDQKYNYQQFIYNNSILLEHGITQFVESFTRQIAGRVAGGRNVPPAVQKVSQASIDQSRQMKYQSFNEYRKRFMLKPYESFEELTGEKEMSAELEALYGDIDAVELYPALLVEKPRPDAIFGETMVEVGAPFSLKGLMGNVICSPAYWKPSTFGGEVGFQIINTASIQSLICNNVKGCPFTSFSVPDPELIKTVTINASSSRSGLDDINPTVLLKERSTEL
Description: LCMS-based COX2 enzymatic inhibition assay (PGE2 quantification). It is filed as biochemical. Set-up: COX2 2 minutes pge2/pge2d4 area ratio Avg; other: 2 minutes; readout pge2/pge2d4 area ratio; average; COX2 2 minutes pge2/pge2d4 area ratio Avg; LLE; average LLE; COX2 2 minutes pge2 area (counts) Avg; readout pge2 area (counts); other: 2 min; "ovine COX2 (oCOX2), human recombinant COX2 (hCOX2)". The settings on record: for pIC50: average. In a few lines:
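Ovine COX-1 (0.1 μg) or human recombinant COX2 (0.2 μg) in 100 mM Tris.HCl pH 8.0 with hematin and epinephrine, preincubated with inhibitor 10 min at 37 °C. Reaction with 5 μM arachidonic acid stopped after 2 min with HCl; PGE2 quantified by LC-MS-MS. IC50 from 12 concentrations in triplicate.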

Setting [1] is: 2 minutes, readout pge2/pge2d4 area ratio, average LLE.
[2] abbreviates: 2 minutes, readout pge2/pge2d4 area ratio, read-out: COX2 2 minutes pge2/pge2d4 area ratio Avg. IC50.
Where [3] appears, read: 2 minutes, readout pge2 area (counts), average LLE.
[4] abbreviates: 2 minutes, readout pge2 area (counts), read-out: COX2 2 minutes pge2 area (counts) Avg. IC50.
Setting [5] is: read-out: COX2 2 minutes pge2/pge2d4 area ratio Avg. IC50 (microM), 2 minutes, readout pge2/pge2d4 area ratio.

As for `CS(=O)(=O)c1ccc(-c2ccc3c(n2)N(Cc2cccs2)C(=O)C3)cc1` [Compound 204], the “COX2 2 minutes pge2/pge2d4 area ratio Avg. LLE” value under setting [1] came out at 2.522. In addition, the pIC50 was 5.93 under setting [2] and 5.69 under setting [4]. Further, under setting [3], the “COX2 2 minutes pge2 area (counts) Avg. LLE” value (“COX2 2 minutes pge2 area” for short) was determined as 2.252.

`CS(=O)(=O)c1ccc(-c2nncc(NCc3cccs3)n2)cc1` [Compound 171]: the “COX2 2 minutes pge2/pge2d4 area ratio Avg. LLE” value under setting [1] was 4.364. Besides, the pIC50 is 6.35 under setting [2] and 6.34 under setting [4]. Besides, under setting [3], the “COX2 2 minutes pge2 area” value was 4.345.

Take `CS(=O)(=O)c1ccc(-c2cc(OCc3ccco3)cnn2)cc1` [Compound 323]: the pIC50 under setting [5] is 5.28.

On to `CS(=O)(=O)c1ccc(-c2cccc(C[C@H](O)c3cccs3)n2)cc1` [Compound 300], for which the pIC50 under setting [5] is 5.28.

`CS(=O)(=O)c1ccc(-c2cncc(N3CCCCC3)n2)cc1` [Compound 262]: under setting [1], the “COX2 2 minutes pge2/pge2d4 area ratio Avg. LLE” value was found to be 3.643. Moreover, the pIC50 under setting [2] is 5.34; the pIC50 under setting [4] is 5.39; the pIC50 (10 minutes, readout pge2 area (counts), read-out: COX2 10 minutes pge2 area (counts) Avg. IC50) is 5.29. The “COX2 2 minutes pge2 area” value under setting [3] came out at 3.693. In addition, for the setting “10 minutes, readout pge2 area (counts), average LLE”, the “COX2 10 minutes pge2 area (counts) Avg. LLE” value is 3.59.

As to `CS(=O)(=O)c1ccc(-c2cncc(SCc3ccccn3)n2)cc1` [Compound 131], the “COX2 2 minutes pge2/pge2d4 area ratio Avg. LLE” value under setting [1] came out at 5.065. The pIC50 under setting [2] was 6.80 and the pIC50 under setting [4] is 6.88. Moreover, under setting [3], the “COX2 2 minutes pge2 area” value is 5.129.

For the molecule `CS(=O)(=O)c1ccc(-c2cncc(NCc3cccs3)n2)c(O)c1` [Compound 137], under setting [1], the “COX2 2 minutes pge2/pge2d4 area ratio Avg. LLE” value turned out to be 4.977. For the same molecule, the pIC50 under setting [2] is 6.71 and the pIC50 under setting [4] is 6.67. Besides, the “COX2 2 minutes pge2 area” value under setting [3] was 4.936.

`CS(=O)(=O)c1ccc(-c2cnc3cnn(Cc4cccs4)c3c2)cc1` [Compound 244]: the “COX2 2 minutes pge2/pge2d4 area ratio Avg. LLE” value under setting [1] was determined as 1.703. The pIC50 under setting [2] was 5.50.

With `CS(=O)(=O)c1ccc(-c2cncc(OC[C@@H]3CCCS3)n2)cc1` (single isomer, unassigned) [Compound 170], the “COX2 2 minutes pge2/pge2d4 area ratio Avg. LLE” value under setting [1] is listed as 4.61. Moreover, the pIC50 is, setting by setting: under setting [2], 6.35; under setting [4], 6.03. The “COX2 2 minutes pge2 area” value under setting [3] was determined as 4.149.

On to `CS(=O)(=O)c1ccc(-c2cnc(O)c(NCc3cccs3)n2)cc1` [Compound 316], for which, under setting [3], the “COX2 2 minutes pge2 area” value is on record as 3.634. Further, the pIC50 under setting [5] is 5.28.

As for `CS(=O)(=O)c1ccc(-c2cc(NCc3ccoc3)ncn2)cc1` [Compound 239], the pIC50 by setting is: under setting [2], 5.56; under setting [4], 5.51.

Consider `CS(=O)(=O)c1ccc(-c2cccc(NCc3cc[nH]c3)n2)cc1` [Compound 185], for which, under setting [1], the “COX2 2 minutes pge2/pge2d4 area ratio Avg. LLE” value stood at 3.623. Further, the pIC50 runs as follows: under setting [2], 6.21; under setting [4], 6.24. Further, under setting [3], the “COX2 2 minutes pge2 area” value was 3.623.

For `Cc1coc(C(=O)Nc2cccc(-c3ccc(S(C)(=O)=O)cc3)n2)c1` [Compound 276], the “COX2 2 minutes pge2/pge2d4 area ratio Avg. LLE” value under setting [1] came out at 2.554. Also, under setting [3], the “COX2 2 minutes pge2 area” value amounted to 2.659. The pIC50 is 5.39 under setting [4] and 5.28 under setting [5].

On to `CS(=O)(=O)c1ccc(-c2cncc(OC[C@H]3CCCS3)n2)cc1` (single isomer, unassigned) [Compound 198], for which, under setting [1], the “COX2 2 minutes pge2/pge2d4 area ratio Avg. LLE” value was 4.116. In addition, the pIC50 reads like this: under setting [2], 6.02; under setting [4], 5.91. In addition, the “COX2 2 minutes pge2 area” value under setting [3] is listed as 4.04.

In the case of `CS(=O)(=O)c1ccc(-c2cncc(NCc3ccoc3)n2)cc1` [Compound 110], the “COX2 2 minutes pge2/pge2d4 area ratio Avg. LLE” value under setting [1] was determined as 5.411. Further, the pIC50 under setting [2] is 7.01 and the pIC50 under setting [4] is 7.03. In addition, under setting [3], the “COX2 2 minutes pge2 area” value is listed as 5.451.

`CS(=O)(=O)c1ccc(-c2nc(NCc3cccs3)cnc2N)cc1` [Compound 90]: the “COX2 2 minutes pge2/pge2d4 area ratio Avg. LLE” value under setting [1] stood at 5.442. Moreover, the pIC50 was 7.17 under setting [2] and 6.03 under setting [4]. In addition, the “COX2 2 minutes pge2 area” value under setting [3] was 4.51.

As for `CS(=O)(=O)c1ccc(-c2cccc(C(=O)Nc3cccs3)n2)cc1` [Compound 281], under setting [1], the “COX2 2 minutes pge2/pge2d4 area ratio Avg. LLE” value stood at 2.264. For the same molecule, the pIC50 under setting [2] is 5.28.

Regarding `C[C@@H](Nc1cccc(-c2ccc(S(C)(=O)=O)cc2)n1)c1ccoc1` (single isomer, unassigned) [Compound 112], the “COX2 2 minutes pge2/pge2d4 area ratio Avg. LLE” value under setting [1] is recorded as 3.614. Further, the pIC50 by setting is: under setting [2], 6.99; under setting [4], 6.96. Also, under setting [3], the “COX2 2 minutes pge2 area” value is 3.525.

Consider `COc1cc(S(C)(=O)=O)ccc1-c1cncc(NCc2ccoc2)n1` [Compound 272], for which, under setting [1], the “COX2 2 minutes pge2/pge2d4 area ratio Avg. LLE” value came out at 3.674. Also, the “COX2 2 minutes pge2 area” value under setting [3] turned out to be 3.674. Moreover, under setting [5], the pIC50 was 5.28.

In the case of `COc1ncc(NCc2sccc2C)nc1-c1ccc(S(C)(=O)=O)cc1` [Compound 62], under setting [1], the “COX2 2 minutes pge2/pge2d4 area ratio Avg. LLE” value is 4.781. In addition, the pIC50 runs as follows: under setting [2], 7.46; under setting [4], 7.39. Besides, the “COX2 2 minutes pge2 area” value under setting [3] is listed as 4.654.

As for `CS(=O)(=O)c1ccc(-c2nc(NCc3cccs3)cnc2C#N)cc1` [Compound 159], the “COX2 2 minutes pge2/pge2d4 area ratio Avg. LLE” value under setting [1] is on record as 4.781. In addition, the pIC50 was 6.44 under setting [2] and 6.42 under setting [4]. The “COX2 2 minutes pge2 area” value under setting [3] was determined as 4.751.

On to `CS(=O)(=O)c1ccc(-c2cccc(C3CC3c3ccoc3)n2)cc1` (single isomer, unassigned) [Compound 177, 2-[2-(furan-3-yl)cyclopropyl]-6-(4-methanesulfonylphenyl)pyridine], for which, under setting [1], the “COX2 2 minutes pge2/pge2d4 area ratio Avg. LLE” value is recorded as 3.065. Further, the pIC50 was 6.27 under setting [2] and 6.20 under setting [4]. Further, the “COX2 2 minutes pge2 area” value under setting [3] was 2.982.

`CS(=O)(=O)c1ccc(-c2nc(OCc3cccs3)cc3ncccc23)cc1` [Compound 140]: under setting [1], the “COX2 2 minutes pge2/pge2d4 area ratio Avg. LLE” value amounted to 2.8258. The pIC50 was 6.67 under setting [2] and 6.51 under setting [4]. The “COX2 2 minutes pge2 area” value under setting [3] worked out at 2.75.

For the molecule `Cc1ccc(CNc2cccc(-c3ccc(S(C)(=O)=O)cc3)n2)o1` [Compound 117], the “COX2 2 minutes pge2/pge2d4 area ratio Avg. LLE” value under setting [1] was 4.029. Besides, the pIC50 was 6.96 under setting [2] and 7.21 under setting [4]. Moreover, the “COX2 2 minutes pge2 area” value under setting [3] is 4.185.

For `CS(=O)(=O)c1ccc(-c2cncc(NC[C@H]3CCCO3)n2)cc1` [Compound 263], under setting [1], the “COX2 2 minutes pge2/pge2d4 area ratio Avg. LLE” value came out at 4.417. Further, the pIC50 is, setting by setting: under setting [2], 5.34; under setting [4], 5.39. Further, the “COX2 2 minutes pge2 area” value under setting [3] is on record as 4.469.

For the molecule `CS(=O)(=O)c1ccc(-c2cncc(N3Cc4ccccc4C3)n2)cc1` [Compound 313], the pIC50 under setting [5] was 5.28.

Consider `CS(=O)(=O)c1ccc(-c2cc(OCc3cccs3)cnn2)cc1` [Compound 234], for which the “COX2 2 minutes pge2/pge2d4 area ratio Avg. LLE” value under setting [1] turned out to be 3.137. In addition, the pIC50 is, setting by setting: under setting [2], 5.61; under setting [4], 5.62. The “COX2 2 minutes pge2 area” value under setting [3] worked out at 3.14.

Regarding `COc1ncc(NCc2cncs2)nc1-c1ccc(S(C)(=O)=O)cc1` [Compound 163], under setting [1], the “COX2 2 minutes pge2/pge2d4 area ratio Avg. LLE” value is recorded as 4.491. The pIC50 is, setting by setting: under setting [2], 6.39; under setting [4], 6.50. Further, the “COX2 2 minutes pge2 area” value under setting [3] came out at 4.597.

As to `C[C@@H](Oc1cncc(-c2ccc(S(C)(=O)=O)cc2)n1)c1cccs1` (single isomer, unassigned) [Compound 249], the “COX2 2 minutes pge2/pge2d4 area ratio Avg. LLE” value under setting [1] amounted to 2.526. Besides, the pIC50 is, setting by setting: under setting [2], 5.46; under setting [4], 5.39. Besides, under setting [3], the “COX2 2 minutes pge2 area” value came out at 2.379.

On to `CS(=O)(=O)c1ccc(-c2cncc(NCc3ccns3)n2)cc1` [Compound 142], for which the “COX2 2 minutes pge2/pge2d4 area ratio Avg. LLE” value under setting [1] is 5.555. In addition, the pIC50 is 6.65 under setting [2] and 6.68 under setting [4]. Further, the “COX2 2 minutes pge2 area” value under setting [3] was 5.576.

Regarding `CS(=O)(=O)c1ccc(-c2cncc(SCc3cocn3)n2)cc1` [Compound 258], under setting [1], the “COX2 2 minutes pge2/pge2d4 area ratio Avg. LLE” value is 3.44. Further, the pIC50 was 5.39 under setting [2] and 5.41 under setting [4]. The “COX2 2 minutes pge2 area” value under setting [3] turned out to be 3.462.
